{"source": "ChEMBL document CHEMBL1141974", "about": "“Inclusion complexes of N-sulfamoyloxazolidinones with beta-cyclodextrin” (Bioorg Med Chem Lett, 2005)", "key": {"[1]": {"experiment": "Partition coefficient (logP) (beta-cyclodextrin complex)", "assay_type": "physicochemical", "settings": "octanol/water"}, "[2]": {"experiment": "Relative hydrophobicity enhancement value obtained via beta-cyclodextrin complexation", "assay_type": "ADME"}, "[3]": {"experiment": "Partition coefficient (logP)", "assay_type": "physicochemical", "settings": "octanol/water"}}}
{"smiles": "CN(c1ccccc1)S(=O)(=O)N1CCOC1=O", "values": [{"measurement": "logP", "setting": "[1]", "result": -0.22}, {"measurement": "delta Log P", "setting": "[2]", "result": 0.78}, {"measurement": "logP", "setting": "[3]", "result": 0.56}]}
{"smiles": "O=C1OCCN1S(=O)(=O)Nc1ccccc1", "values": [{"measurement": "logP", "setting": "[1]", "result": -0.2}, {"measurement": "delta Log P", "setting": "[2]", "result": 0.85}, {"measurement": "logP", "setting": "[3]", "result": 0.65}]}
{"smiles": "Cc1ccc(NS(=O)(=O)N2CCOC2=O)cc1", "values": [{"measurement": "logP", "setting": "[1]", "result": 0.1}, {"measurement": "delta Log P", "setting": "[2]", "result": 1.01}, {"measurement": "logP", "setting": "[3]", "result": 1.12}]}
{"smiles": "COc1ccc(NS(=O)(=O)N2CCOC2=O)cc1", "values": [{"measurement": "logP", "setting": "[1]", "result": -0.17}, {"measurement": "delta Log P", "setting": "[2]", "result": 0.94}, {"measurement": "logP", "setting": "[3]", "result": 0.77}]}
{"smiles": "O=C1OCCN1S(=O)(=O)Nc1ccc([N+](=O)[O-])cc1", "values": [{"measurement": "logP", "setting": "[1]", "result": -0.35}, {"measurement": "delta Log P", "setting": "[2]", "result": 0.9}, {"measurement": "logP", "setting": "[3]", "result": 0.55}]}
{"smiles": "O=C1OCCN1S(=O)(=O)Nc1ccc(Cl)cc1", "values": [{"measurement": "logP", "setting": "[1]", "result": 0.46}, {"measurement": "delta Log P", "setting": "[2]", "result": 0.8}, {"measurement": "logP", "setting": "[3]", "result": 1.26}]}
